Tests used:
Format in all cases: biochemical
UGT 1A10 = biological target: T1, UGT 1A10 (Homo sapiens, UniProt Q9HAW8); test: UGT activity: utilization of substrate by recombinant UGT 1A10 Supersomes; conditions: 2 hour incubation at 37° C., plus vs minus UDPGA, background corrected
T1 construct: purchased BD Gentest; host or cells: insect cells (microsomes)
T1 sequence (Q9HAW8 26-530): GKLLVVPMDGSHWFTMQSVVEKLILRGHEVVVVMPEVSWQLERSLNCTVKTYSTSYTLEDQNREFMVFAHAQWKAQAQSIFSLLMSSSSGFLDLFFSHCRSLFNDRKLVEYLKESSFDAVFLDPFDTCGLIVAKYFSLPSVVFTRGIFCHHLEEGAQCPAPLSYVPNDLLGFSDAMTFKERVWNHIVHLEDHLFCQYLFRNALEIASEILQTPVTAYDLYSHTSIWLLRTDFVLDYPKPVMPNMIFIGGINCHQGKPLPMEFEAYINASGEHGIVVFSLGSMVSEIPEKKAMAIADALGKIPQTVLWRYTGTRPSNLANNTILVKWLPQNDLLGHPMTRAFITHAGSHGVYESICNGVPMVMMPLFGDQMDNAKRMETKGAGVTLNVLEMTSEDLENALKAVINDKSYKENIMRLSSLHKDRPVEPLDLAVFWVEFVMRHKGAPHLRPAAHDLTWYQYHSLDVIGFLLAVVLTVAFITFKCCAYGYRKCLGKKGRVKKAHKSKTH
Description: (§1) The invention includes a method of determining activity of the uridine 5′-diphospho-glucuronosyltransferase (UDP-glucuronosyltransferase, or UGT) family enzymes in vitro. Briefly, UGT enzymes from overexpressed insect microsomes (Supersomes™, BD Gentest™) or animal tissue microsomes (Xenotech, BD Gentest™) were incubated with a cyanobenzothiazole substrate of the invention and the cofactor UDP-glucuronic acid (UDPGA) at 37° C. in buffer at physiological pH containing MgCl2 and alamethicin (typically, 50 mM TES, pH 7.5, 8 mM MgCl2, 4 mM UDPGA (Sigma) and 25 μg/mL alamethicin (Sigma)). Following the UGT enzyme reaction, an equal volume of P450-Glo Luciferin Detection Reagent (Promega) containing 15-30 mM D-cysteine-HCl.H2O (Sigma) was added and the plate was mixed and incubated at room temperature, typically for 20-30 minutes. […]
(§2) During this incubation, the cysteine reacts with the cyanobenzathiozole substrate to yield a D-luciferin derivative. […] Therefore, activity of the UGT enzyme can be measured by analyzing the difference (lower or no output) in relative light units (RLU) of a sample in which glucuronidation occurs compared to a sample that was run under the same conditions with no added UDPGA cofactor. […]
(§3) Reactions were assembled in a white 96-well plate. […] After the incubation was completed, the plate was read on a Veritas™ luminometer (Turner BioSystems, Inc.; Sunnyvale, Calif.). […]

UGT 1A7 = biological target: T2, UGT 1A7 (Homo sapiens, UniProt Q9HAW7); test: UGT activity: utilization of substrate by recombinant UGT 1A7 Supersomes; conditions: 2 hour incubation at 37° C., plus vs minus UDPGA
T2 construct: purchased BD Gentest; host or cells: insect cells (microsomes)
T2 sequence (Q9HAW7 26-530): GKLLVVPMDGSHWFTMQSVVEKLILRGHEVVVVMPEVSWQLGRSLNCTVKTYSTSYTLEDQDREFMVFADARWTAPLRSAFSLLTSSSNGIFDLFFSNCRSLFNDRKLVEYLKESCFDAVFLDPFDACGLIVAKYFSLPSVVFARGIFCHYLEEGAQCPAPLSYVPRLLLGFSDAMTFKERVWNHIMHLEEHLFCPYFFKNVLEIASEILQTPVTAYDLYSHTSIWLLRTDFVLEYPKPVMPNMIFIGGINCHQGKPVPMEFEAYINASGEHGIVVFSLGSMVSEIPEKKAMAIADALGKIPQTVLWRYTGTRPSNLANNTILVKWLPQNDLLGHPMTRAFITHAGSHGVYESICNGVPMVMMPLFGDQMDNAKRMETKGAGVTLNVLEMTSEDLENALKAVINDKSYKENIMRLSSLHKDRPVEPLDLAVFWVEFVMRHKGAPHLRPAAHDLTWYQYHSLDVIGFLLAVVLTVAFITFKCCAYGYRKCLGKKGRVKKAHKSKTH
Description: as §1, §2, §3

UGT 1A3 = biological target: T3, UGT 1A3 (Homo sapiens, UniProt P35503); test: UGT activity: utilization of substrate by recombinant UGT 1A3 Supersomes; conditions: 2 hour incubation at 37° C., plus vs minus UDPGA
T3 construct: purchased BD Gentest; host or cells: insect cells (microsomes)
T3 sequence (P35503 29-534): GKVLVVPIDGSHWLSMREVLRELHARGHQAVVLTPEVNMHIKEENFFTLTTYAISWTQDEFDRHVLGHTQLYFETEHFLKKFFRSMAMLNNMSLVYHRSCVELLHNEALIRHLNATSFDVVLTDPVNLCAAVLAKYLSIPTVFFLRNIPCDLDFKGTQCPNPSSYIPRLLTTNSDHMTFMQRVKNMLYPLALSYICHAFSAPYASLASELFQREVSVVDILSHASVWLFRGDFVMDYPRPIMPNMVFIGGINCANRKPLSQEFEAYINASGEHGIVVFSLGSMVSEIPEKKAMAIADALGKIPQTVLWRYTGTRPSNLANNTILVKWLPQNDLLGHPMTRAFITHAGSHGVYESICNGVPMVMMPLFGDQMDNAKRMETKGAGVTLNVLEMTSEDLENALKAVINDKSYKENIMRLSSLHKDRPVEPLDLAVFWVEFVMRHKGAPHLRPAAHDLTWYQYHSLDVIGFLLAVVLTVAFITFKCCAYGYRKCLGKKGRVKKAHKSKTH
Description: as §1, §2, §3

SMILES | % utilization by UGT 1A10 (UGT 1A10) | utilization by UGT 1A7 (in words) (UGT 1A7) | utilization by UGT 1A3 (in words) (UGT 1A3)
Cc1cc(O)cc2sc(C#N)nc12 [compound 3138] | over 50% | detectable levels of utilization above background | detectable levels of utilization above background
Cc1cc(O)cc2sc(C3=NC(C(=O)O)CS3)nc12 (stereo not drawn) [compound 3478] | ≤ 15% | only UGT 1A6 was able to utilize compound 3478 to any appreciable extent | only UGT 1A6 was able to utilize compound 3478 to any appreciable extent
